In a melting point compilation (Tetko et al.; mined from patent text by program, amines drawn as free bases though some values may be those of a salt):

SMILES | melting point [°C]
N#Cc1cnn2c(-c3cccc(C(F)(F)F)c3)ccnc12 | 141 to 142
CC(C(=O)NCC(=O)O)C(SC(=O)c1ccccc1)SC(=O)c1ccccc1 (stereo unspecified) | 113 to 114
Cc1cccc(NC(=O)c2cc(C#N)cc(C)n2)c1 | 160
CN(NC(=O)c1ccccc1C(=O)O)C(=S)Nc1ccccc1 | 155 to 156
O=[N+]([O-])c1ccc(CSc2cc(Cl)nc3c2ncn3C2OC(CO)C(O)C2O)cc1 (stereo unspecified) | 162 to 165
O=C(O)CCCC(=O)N1CCC(C2c3ccccc3C=Cc3ccccc32)CC1 | 180 to 186
CCCc1nc(N)nc(N)c1N1CCN(c2ccc(C(=O)OCC)cc2)CC1 | 215 to 216
CNC(=O)CCCCCCCCn1ccnc1 | 64 to 66
CN(C=O)c1ccccc1C(=O)COC(=O)c1ccccc1 | 100 to 102
NS(=O)(=O)c1ccc(CCCNCC(O)c2ccccc2)cc1 (stereo unspecified) | 165 to 166
CC(C)(C)c1ccccc1N1CCC(N)=N1 | 114
COCCOc1ccc(COC(C)=O)c(Oc2ncc(C(F)(F)F)cc2Cl)c1 | 52.5 to 53
O=C(CBr)Nc1ccc(Br)cc1C(=O)O | 203 to 204
C=CCc1ccc2oc(C(=O)c3ccc(OC)cc3)c(C)c2c1O | 48 to 50
OC(CN1CC=C(c2ccc(Cl)cc2)CC1)c1ccc(Cl)cc1 (stereo unspecified) | 152 to 153
CC(C)(C)OC(=O)NCCSc1cc(-c2ccccc2)on1 | 87 to 88
COc1cc2c(-c3cc4cc(F)cnc4[nH]3)cn(C)c2cc1OC | 283
Cc1ccc(Oc2cccc(-c3nnc(Nc4ccc(Cl)c(Cl)c4)s3)c2)cc1 | 210 to 211
O=C(/C=C/c1ccn(S(=O)(=O)c2ccc3ccccc3c2)c1)NO | 153
CCOC(=O)C1=Cc2cc(-c3ccc(OCC)cc3)ccc2OCC1 | 124 to 127
CCOC(=O)CNc1ccc2ccccc2c1 | 83 to 84

SMILES | melting point [°C]
CCc1cnc2c(c1)S(=O)(=O)NC2=O | 199 to 201
O=c1[nH]ncc2cc(Cl)ccc12 | 272 to 273
CCCCCCCCSCN1CN(CSCCCCCCCC)c2cccc3cccc1c23 | 52 to 56
CCCCc1nc2c(N)nc3ccccc3c2n1CCCC1(C)OCCO1 | 169 to 172
O=C1C(O)=C(c2ccccc2)CN1Cc1ccco1 | 222 to 226
O=S1(=O)NC(C2CCCCC2)=Nc2cccc(-c3ccccn3)c21 | 200 to 203
COc1cccc(C(CNC(=O)Cc2c(Cl)cncc2Cl)c2ccccc2)c1 (stereo unspecified) | 142 to 143
NCc1ccn(-c2cc3c(cc2[N+](=O)[O-])[nH]c(=O)c(=O)n3C2CCCCC2)c1 | > 300
CCOc1ccc(-c2nc(OC(C)=O)c(-c3ccccc3)s2)cc1 | 149 to 150
COC(=O)c1ccc(C#CC(=O)c2ccc3c(c2)C(C)(C)CCC3(C)C)cc1 | 113 to 114
CCOC(=O)CCc1cn(-c2ccc(Cl)cn2)nc1C(C)C | 70 to 71
CN(C)CCCC#Cc1cnc(N)nc1 | 126 to 127
O=C1N(Cc2cnccn2)c2ccccc2C12COc1cc3c(cc12)CCO3 (stereo unspecified) | 143 to 144
CC(=O)OCc1nc2nc(O)cnc2c(=O)[nH]1 | > 300
COc1c(F)cccc1OCCN1C(=O)c2ccccc2C1=O | 112 to 113
CC(C)(CO)NS(=O)(=O)c1cc(NC(=O)c2cnn3c(C(F)(F)F)cc(-c4ccc(Cl)cc4)nc23)c(Cl)s1 | 272
CCOC(=O)CC(=O)c1cc(F)c(F)c(Br)c1F | 85 to 88
C#CCNC(=O)c1cccc(F)c1Nc1nc(Nc2ccc3c(c2)N(C(C)=O)CCCC3)ncc1Cl | 210 to 214
COc1ccc(-c2ccc(OC)cc2[N+](=O)[O-])cc1 | 122 to 124
CNS(=O)(=O)CC(=O)C1=C(C)NC(C)=C(C(=O)OC)C1c1cccc([N+](=O)[O-])c1 (stereo unspecified) | 173 to 176
